Tests used:
[1] = Body weight change in the H460 xenograft study; type: in vivo, CD-1 nude mice; conditions: 28-day period; Pemetrexed i.p. 200 mg/kg, Lucanthone oral 80 mg/kg, once every 4 days x7; vehicles −2.9%
Description: (§1) Methods: Groups of CD-1 nude mice were xenografted subcutaneously with human H460 non-small cell lung carcinoma cells. Treatments were initiated when tumor growth reached approximately 130 mm^3. Treatments were administered 7 times at frequency of once every 4 days and included vehicles, Pemetrexed given intraperitoneally at 200 mg/kg, Lucanthone given orally at 80 mg/kg, and the combinations of Pemetrexed and Lucanthone at the same doses. The tumor growths and body weight change were followed for 28 days.

[2] = tested on: human H460 non-small cell lung carcinoma cells; assay: H460 non-small cell lung carcinoma xenograft tumor growth in CD-1 nude mice; type: in vivo; conditions: 28 days, 7 treatments once every 4 days, Pemetrexed i.p. 200 mg/kg, Lucanthone oral 80 mg/kg
Description: as §1

Structure (SMILES): Nc1nc2[nH]cc(CCc3ccc(C(=O)N[C@@H](CCC(=O)O)C(=O)O)cc3)c2c(=O)[nH]1 [Pemetrexed, N-[4-[2-(2-amino-4,7-dihydro-4-oxo-1H-pyrrolo[2,3-d]pyrimidin-5-yl)ethyl]-benzoyl]-L-glutamic acid]
- body weight changes excluding the tumor weights [1]: −0.9%
- growth inhibition compared to the vehicle-treated group [2]: 33%
- fold of increases of the tumor volume ([2]; vehicles 42): 28 fold
